Measurements as given in patent US20050075398A1, “Neuroprotectin D1 protects against cellular apoptosis, stroke damage, alzheimer's disease and retinal diseases” (priority 2003, published 2005).
“Also recorded” adds a separate entry of the source.

How the values were obtained:
[1] = test system: polymorphonuclear leukocyte infiltration; assay: Zymosan-induced peritonitis, leukocyte infiltration; type: in vivo, mouse; conditions: zymosan-induced peritonitis, FVB mice; i.v. bolus 1.5 min before Zymosan A; lavage at 2 h
Experimental: The inhibition of leukocyte infiltration in zymosan-induced peritonitis by 4,17S-diHDHA and 10,17S-docosatriene (NPD1) was tested. […] Peritonitis was induced in 6- to 8-week-old male FVB mice (Charles River Laboratories) by peritoneal injection of 1 mg Zymosan A. The compounds 4,17S- and 10,17S-diHDHA were injected by intravenous bolus injection, 1.5 minutes before Zymosan A treatment. Two hours after induction of peritonitis, rapid peritoneal lavages were collected, and cell type enumeration was performed.

[2] = test system: COX-2 expression; assay: COX-2 mRNA abundance in ipsilateral hippocampus after MCA-O; type: in vivo, mouse; conditions: 1 h MCA-O, 2 h reperfusion, infused into third ventricle (NPD1 0.16 μg/ml)
Experimental: COX-2 RNA abundance in hippocampus and HN cells. Abundance of human-specific COX-1 and COX-2 RNA message was assayed using RT-PCR as described in Bazan, N. G., and Lukiw, W. J. (2002) J. Biol. Chem. 277, 30359-30367.
To determine COX-1 and COX-2 expression, mRNA abundance in the ipsilateral hippocampus was measured. […] A 3-fold increase of COX-2 was seen due to MCA-O reperfusion (FIG. 7C). The infusion of the precursor DHA as well as its product 10,17S-docosatriene (NPD1) inhibited COX-2 expression by 14% and 52%, respectively.

[3] = test system: Bcl-xL gene expression; assay: HGU133 GeneChip DNA array in HN cells: Bcl-xL; type: cell-based, human; conditions: Aβ42 25 μM, DHA 50 nM or NPD1 50 nM, 18 h, nsc = no significant change
[4] = test system: NF-κB-DNA binding activity; assay: EMSA of NF-κB in hippocampus after MCA-O; type: in vivo, mouse; conditions: ipsilateral hippocampus; 1 h MCA-O, 2 h reperfusion; infused into third ventricle 3 h at 0.25 μl/h (NPD1 0.16 μg/ml)
Experimental: Electrophoretic mobility-shift assay (EMSA) of human AP1, HIF-1α, NF-κBp50/p65, and STAT-1α. Nuclear protein extracts (NPXTs) were prepared from one to three 3.5 cm-diameter wells of HN cells and quantitated. NPXTs (5 μg) derived from HN cells were incubated with[γ-^32P]-ATP (˜3000 Ci/mmol)-end-labeled AP1, HIF-1α, NF-κκBp50/p65, or STAT-1α consensus and mutant oligonucleotides in 5-μl volumes, reacted for 30 min on ice, analyzed on 5% or 10% acrylamide/90 mM Tris-borate pH 8.4, 1 mM EDTA (TBE) gels, dried onto 2-mm Whatman filter paper at 80° C. for 2 h, and phosphorimaged using a Typhoon Variable Mode Imager (Amersham Pharmacia Biotech, Piscataway, N.J. ).
FIGS. 7A, 7B, and 7C show mouse hippocampus after 1 h MCA-O was followed by 2 h reperfusion, where either vehicle, DHA, or 10,17S-docosatriene (NPD1) (0.16 μg/ml) was infused into the third ventricle for 3 h at 0.25 μl/h. […] NF-κB was increased over two fold in the ipsilateral hippocampus after MCA-O, and the infusion of either DHA or 10,17S-docosatriene (NPD1) inhibited ischemia-reperfusion-induced NF-κB activation by 28% and 48%, respectively (FIG. 7A).

[5] = test system: Bcl-2 gene expression; assay: HGU133 GeneChip DNA array in HN cells: Bcl-2; type: cell-based, human; conditions: Aβ42 25 μM, DHA 50 nM or NPD1 50 nM, 18 h, nsc = no significant change
[6] = test system: polymorphonuclear leukocyte infiltration (myeloperoxidase activity); assay: Myeloperoxidase (MPO) activity assay in hippocampus and neocortex after MCA-O and reperfusion; type: in vivo, mouse; conditions: 1 h MCA-O, 48 h reperfusion
Experimental: Middle Cerebral Artery Occlusion (MCA-O) and reperfusion. Experimental protocols were reviewed and approved by the Institutional Animal Care and Use Committee of Louisiana State University Health Sciences Center, New Orleans. Mice (20-25 g body wt) were induced with 2% isoflurane in a mixture of 70% nitrous oxide and 30% oxygen. Anesthesia was maintained with 1% isoflurane. Temperature was maintained at 36.5-37.5° C. using a Harvard homeothermic blanket. P 10 polyethylene catheters were placed in the femoral artery and vein, and the blood pressure was monitored. Arterial blood was analyzed for PO2, PCO2, and pH after 1 h of ischemia and 30 min after the onset of reperfusion. The common carotid and external carotid arteries were temporarily ligated with a retracting suture, and the external carotid artery was dissected just proximal to its bifurcation. The occluding filament was introduced from the external carotid artery and advanced to the internal carotid artery. The AVM micro clip was removed. The filament was advanced so that the blunted tip lay in the anterior cerebral artery and the side of the filament occluded the origin of the middle cerebral artery (MCA). The stump of the external carotid artery was ligated, and tension on the retracting suture to the common carotid artery was gently released, restoring blood flow to the carotid system.
Occlusion of the middle cerebral artery (MCA-O) was maintained for 1 h; reperfusion was then established by delicate retrieval of the occluding suture from the arterial lumen, restoring blood flow to the region of the MCA. The mice were then killed, and the hippocampus and brain cortex rapidly dissected and frozen. Samples were kept at −80° C. until analysis. In some experiments, aspirin (7.5 mg/kg) was administered by gavage 15 min before MCA-O.
Polymorphonuclear leukocyte infiltration measurement by the myeloperoxidase (MPO) assay. Inhibition of leukocyte infiltration by 10,17S-docosatriene (NPD1) or docosahexaenoic acid (DHA) was measured in mouse hippocampus and neocortex after 1 h of middle cerebral artery occlusion (MCA-O) and 48 h of reperfusion. Lipids were delivered for each experiment by perfusion (250 nl/h) through Alzet minipumps implanted into the third ventricle. Hippocampus and neocortex from the ipsilateral (MCA-O-reperfusion) and contralateral sides were rapidly dissected. Brain samples were assayed for myeloperoxidase activity as described in Huang, J., Choudhri, T. F., Winfree, C. J., McTaggart, R. A., Kiss, S., Mocco, J., Kim, L. J., Protopsaltis, T. S., Zhang, Y., Pinsky, D. J., and Connolly Jr., E. S. (2000) Stroke 31, 3047-3053. Briefly, brain tissues were homogenized in 10 mM phosphate buffer (pH 7.4), then frozen and thawed with liquid N2 followed by sonication. Samples were precipitated at 10,000×g for 10 min, then aliquots of supernatants were added to 10 mM phosphate buffer (pH 6.0) and a substrate solution containing o-dianisidine (Sigma; St. Louis, Mo.) and 0.025% hydrogen peroxide, and finally incubated at 37° C. for 45 min. Spectrophotometric detection was obtained at 460 nm.

[7] = test system: prostaglandin E2 (PGE2) formation; assay: ELISA of PGE2 in hippocampus during reperfusion after MCA-O; type: in vivo, mouse; conditions: aspirin 7.52 mg/kg by gavage 15 min before MCA-O; C57BL/6 mice
Experimental: To confirm that the aspirin dose administered by gavage did reach the brain, the time course for prostaglandin E2, LTB4, and lipoxin A4 production was determined in the hippocampus in parallel assays. The time course of prostaglandin E2, leukotriene B4, and lipoxin A4 formation was followed in mouse hippocampus after 1-h middle cerebral artery occlusion (MCA-O), followed by reperfusion with (FIG. 2B) or without (FIG. 2A) aspirin treatment. Detection of the compounds was performed by sensitive and specific ELISA, in tandem, for prostaglandin E2 (PGE2), leukotriene B4 (LTB4), and lipoxins (LXA4) (Neogen, Lexington, Ky.). […] Maximal LTB4 was generated in aspirin-treated hippocampus by 8 h, as was the case with lipoxin A4, which also peaked within 8 h.

[8] = test system: Aβ40 and Aβ42 peptide secretion; assay: Aβ40 and Aβ42 peptide secretion by aging HN cells (Western immunoblot of medium); type: cell-based, human; conditions: aging HN cells cultured up to 8 weeks; DHA 50 nM or IL-1β 10 ng/ml continuously in medium
Experimental: Human Neural (HN) Cells. HN cells in primary culture, starting as primary spheroids (CC-2599, Clonetics, Walkersville, Md.), were grown in neural progenitor maintenance medium (NPMM) containing human epidermal and fibroblast growth factor, gentamicin/amphotericin (G/A1000), and neural survival factor-1 for up to 8 weeks. […] (Data not shown).
Additions of IL-1β and DHA to the Growth Medium. After 1 week of HN cell growth, IL-1β (10 ng/ml) or DHA (50 nM) was added to the NPMM culture medium.
To determine the effect of cytokine-mediated stress on aging HN cells, AP peptide release was assayed in the continuous presence in the culture medium of IL-1β, an inducer of reactive oxygen species (ROS) generation and oxidative stress as described in Lynch, A. M., Moore, M., Craig, S., Lonergan, P. E., Martin, D. S., Lynch, M. A. (2003) J. Biol. Chem., 278: 51075-51084; and Kaur, J., Dhaunsi, G. S., Turner, R. B. (2004) Med. Princ. Pract., 13: 26-29. Parallel experiments in aging HN cells were performed in the presence of control neuro-progenitor maintenance medium (NPMM) and the continuous presence of NPMM+DHA.

[9] = test system: ARPE-19 cells; assay: Hoechst staining, TNFα/H2O2 oxidative stress-induced apoptosis; type: cell-based, human; conditions: 50 nM added with TNFα 10 ng/ml plus H2O2 (400-800 μM); 14 h
Experimental: ARPE-19 cell culture and chemicals: ARPE-19 cells (L. M. Hjelmeland, ATCC # CRL-2302) were grown and maintained in DMEM-F12 medium supplemented with 10% FBS and incubated at 37° C. with a constant supply of 5% CO2. ARPE-19 cells are spontaneously transformed human retinal pigment epithelial cells that conserve cellular biological and functional properties. All chemicals were purchased from Sigma Chemical Co. (St. Louis, Mo.) unless otherwise indicated.
Hoechst staining: ARPE-19 cells were loaded with 2 μM Hoechst dissolved in a Locke's solution (Promega, Madison, Wis.) and incubated one h at 37° C. before imaging. Cells were then washed once with PBS and viewed using a Nikon DIAPHOT 200 microscope under UV fluorescence. Images were recorded by a Hamamatsu Color Chilled 3CCD camera and Photoshop 5.0 software, as described in Mukherjee, P. K., DeCoster, M. A., Campbell, F. Z., Davis, R. J. & Bazan, N. G. (1999) J. Biol. Chem. 274:6493-6498.
Several experimental conditions that result in reproducible oxidative-stress-induced apoptosis in ARPE-19 cells were tested. One condition chosen was the combination of TNFα with H2O2, both in relatively low concentrations. Typically 10 ng/ml of TNFα and 400-800 μM H2O2 led to marked increase in Hoechst-positive cells (Data not shown). Neither TNFα nor H2O2 alone triggered a significant effect under these conditions. (Data not shown).
Serum starvation made ARPE-19 cells more sensitive to oxidative stress-triggered apoptosis induced by TNFα/H2O2. Cells were grown in culture for 72 h in the presence of BSA (3.35 μM) with or without DHA (6.7 μM). Endogenous NPD1 formation was enhanced by BSA-DHA (FIG. 12A).
In the next experiment, confluent cells were starved for 8 h, then TNFα/H2O2 was added and incubated for 14 h before staining with Hoechst reagent. NPD1 (50 nM) was added at the time of adding TNFα/H2O2. […] When the TNFα concentration (10 ng/ml) was maintained and H2O2 concentration was decreased from 800 to 400 μM, fewer Hoechst-positive cells were seen. […] (Data not shown).

[10] = 1 μg or 3 μg over 48 h (dose of the value not stated)

CCC=CCC(O)C=CC=CCC=CCC=CC=CC(O)CCC(=O)O (stereo not drawn) [4,17S-diHDHA]
inhibition of polymorphonuclear leukocyte infiltration [1]: dose-dependent inhibition; also recorded: some inhibition

CC/C=C\C/C=C\C/C=C\C/C=C\C/C=C\C/C=C\CCC(=O)O [DHA, docosahexaenoic acid]
inhibition of COX-2 expression (mRNA) [2]: 14% | Bcl-xL gene expression, fold change over untreated controls [3]: +1.5 fold | inhibition of ischemia-reperfusion-induced NF-κB activation [4]: 28% | Bcl-2 gene expression, fold change over untreated controls [5]: +2.5 fold | inhibition of myeloperoxidase activity, hippocampus ([6]; 2 μg over 48 h perfusion): 60% | inhibition of myeloperoxidase activity, neocortex ([6]; 2 μg over 48 h perfusion): no inhibition | inhibition of myeloperoxidase activity, hippocampus ([6]; 20 μg over 48 h perfusion): 72% | inhibition of myeloperoxidase activity, neocortex ([6]; 20 μg over 48 h perfusion): 40% | inhibition of myeloperoxidase activity, hippocampus ([6]; 200 μg over 48 h perfusion): 82% | inhibition of myeloperoxidase activity, neocortex ([6]; 200 μg over 48 h perfusion): 73%

CC(=O)Oc1ccccc1C(=O)O [aspirin]
effect on accumulation of PGE2 in hippocampus within 8 h of reperfusion [7]: inhibited

IL-1β: human recombinant interleukin 1-beta, cytokine stressor
effect on Aβ peptide (Aβ40 and Aβ42) secretion [8]: enhanced

10,17S-docosatriene methyl ester [10,17S-docosatriene (NPD1) methyl ester]
inhibition of ipsilateral myeloperoxidase activity, hippocampus [6, 10]: 49% | inhibition of ipsilateral myeloperoxidase activity, neocortex [6, 10]: 97%

CCCCC/C=C\C[C@@H](O)/C=C/C=C/C=C\[C@@H](O)CCCC(=O)O [LTB4, leukotriene B4]
inhibition of oxidative stress (TNFα/H2O2)-induced Hoechst-positive cells / apoptosis [9]: partially inhibitory

O=C(O)CCC[C@H](O)\C=C/C=C/C=C/[C@H](O)C/C=C\CCCCCO [20-OH-LTB4]
inhibition of oxidative stress (TNFα/H2O2)-induced Hoechst-positive cells / apoptosis [9]: neither PGE2, LTB4, nor 20-OH-LTB4 (each at 50 nM) was able to elicit the degree of inhibition

CCCCC/C=C\C/C=C\C/C=C\C/C=C\CCCC(=O)O [Arachidonic acid, arachidonic acid]
inhibition of oxidative stress (TNFα/H2O2)-induced Hoechst-positive cells / apoptosis [9]: partially effective

CCCCC[C@H](O)/C=C/[C@H]1[C@H](O)CC(=O)[C@@H]1C/C=C\CCCC(=O)O [PGE2, prostaglandin E2]
inhibition of oxidative stress (TNFα/H2O2)-induced Hoechst-positive cells / apoptosis [9]: neither PGE2, LTB4, nor 20-OH-LTB4 (each at 50 nM) was able to elicit the degree of inhibition
